{"source": "the supplement of paper PMC11208160", "data": [{"experiment": "recombinant barcode read abundance after kanamycin selection (control-corrected) (log10(CPM+1)); higher = more efficient recombination; sequences stand for … in AGTGCAGAGAAAATCGGCCAGTTTTCTCTGCCTGCAGTCCGCATGCCGT…AGATTTATGCAGCGGACTGCCTTTCTCCCAAAGTGATAAACCGGACAGTATCATGGACCGGTTTTCCCGGTAATCCGTATTTGCAAGGTTGGTTTCACT; site = the 11-nt target", "summary_of_the_method": "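Targets and IS621 bridge RNA target-binding loops were paired in oligos, each with a promoter, a barcode and the J23119-driven first 104 bridge RNA bases. A vector carrying the remaining 73 bp and a T7-inducible recombinase received these by Gibson cloning, and the pool was co-electroporated into E. coli with a donor plasmid. Duplicate plates contained chloramphenicol/ampicillin LB agar (control) or chloramphenicol/ampicillin/kanamycin with 0.1 mM IPTG. Recombination efficiency comes from averaged, control-corrected counts per million of recombinant-junction barcodes, reported as log10(CPM+1).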", "values": [{"sequence": "CCGGCCACTTGGGTTCTAACCTGTTGCCT (site CAGGCCACTAG)", "recombinant barcode read abundance (log10)": 0.359}, {"sequence": "CCGGCCACTTGGGTTCTAACCTGTTGCCT (site CCGGCCACTAG)", "recombinant barcode read abundance (log10)": 1.82}, {"sequence": "CCGGCCACTTGGGTTCTAACCTGTTGCCT (site CGGGCCACTAG)", "recombinant barcode read abundance (log10)": 0.164}, {"sequence": "CCGGCCACTTGGGTTCTAACCTGTTGCCT (site CTGGCCACTAG)", "recombinant barcode read abundance (log10)": 0.155}, {"sequence": "CCGGGATCTTGGGTTCTAACCTGTTGCCT (site ACGGGATCTAG)", "recombinant barcode read abundance (log10)": 0.323}, {"sequence": "CCGGGATCTTGGGTTCTAACCTGTTGCCT (site CCGGGATCTAG)", "recombinant barcode read abundance (log10)": 1.22}, {"sequence": "CCGGGATCTTGGGTTCTAACCTGTTGCCT (site GCGGGATCTAG)", "recombinant barcode read abundance (log10)": 0.161}, {"sequence": "CCGGGATCTTGGGTTCTAACCTGTTGCCT (site TCGGGATCTAG)", "recombinant barcode read abundance (log10)": 0.231}, {"sequence": "CCGGGTACTTGGGTTCTAACCTGTTGCCG (site AGCAACCCTTT)", "recombinant barcode read abundance (log10)": 0.0127}, {"sequence": "CCGGGTACTTGGGTTCTAACCTGTTGCCG (site CCGGGTACTCG)", "recombinant barcode read abundance (log10)": 1.66}, {"sequence": "CCGGTGACTTGGGTTCTAACCTGTTGCCT (site ACGGTGACTAG)", "recombinant barcode read abundance (log10)": 0.0889}, {"sequence": "CCGGTGACTTGGGTTCTAACCTGTTGCCT (site CCGGTGACTAG)", "recombinant barcode read abundance (log10)": 0.743}, {"sequence": "CCGGTGACTTGGGTTCTAACCTGTTGCCT (site GCGGTGACTAG)", "recombinant barcode read abundance (log10)": 0.146}, {"sequence": "CCGGTGACTTGGGTTCTAACCTGTTGCCT (site TCGGTGACTAG)", "recombinant barcode read abundance (log10)": 0.0596}, {"sequence": "CCGGTTGCTTGGGTTCTAACCTGTTGCCT (site CCGGATTCTAG)", "recombinant barcode read abundance (log10)": 0.0357}, {"sequence": "CCGGTTGCTTGGGTTCTAACCTGTTGCCT (site CCGGTTGCTAG)", "recombinant barcode read abundance (log10)": 2.76}, {"sequence": "CCGTCTACTTGGGTTCTAACCTGTTGCTT (site CCGTCTACTAA)", "recombinant barcode read abundance (log10)": 0.107}, {"sequence": "CCGTCTACTTGGGTTCTAACCTGTTGCTT (site CCGTCTACTCA)", "recombinant barcode read abundance (log10)": 0.457}, {"sequence": "CCGTCTACTTGGGTTCTAACCTGTTGCTT (site CCGTCTACTGA)", "recombinant barcode read abundance (log10)": 0.0444}, {"sequence": "CCGTCTACTTGGGTTCTAACCTGTTGCTT (site CCGTCTACTTA)", "recombinant barcode read abundance (log10)": 0.201}, {"sequence": "CCGTGAACTTGGGTTCTAACCTGTTGCCT (site CAGTGAACTAG)", "recombinant barcode read abundance (log10)": 0.0153}, {"sequence": "CCGTGAACTTGGGTTCTAACCTGTTGCCT (site CCGTGAACTAG)", "recombinant barcode read abundance (log10)": 0.275}, {"sequence": "CCGTGAACTTGGGTTCTAACCTGTTGCCT (site CGGTGAACTAG)", "recombinant barcode read abundance (log10)": 0.0382}, {"sequence": "CCGTGAACTTGGGTTCTAACCTGTTGCCT (site CTGTGAACTAG)", "recombinant barcode read abundance (log10)": 0.163}, {"sequence": "CCGTGGACTTGGGTTCTAACCTGTTGCCA (site CAGGGGACTTG)", "recombinant barcode read abundance (log10)": 0.111}, {"sequence": "CCGTGGACTTGGGTTCTAACCTGTTGCCA (site CCGTGGACTTG)", "recombinant barcode read abundance (log10)": 0.42}, {"sequence": "CCTAAACCTTGGGTTCTAACCTGTTGCGT (site CCTAAACCTAC)", "recombinant barcode read abundance (log10)": 1.63}, {"sequence": "CCTAAACCTTGGGTTCTAACCTGTTGCGT (site CCTAACCCTAC)", "recombinant barcode read abundance (log10)": 0.0278}, {"sequence": "CCTAAACCTTGGGTTCTAACCTGTTGCGT (site CCTAAGCCTAC)", "recombinant barcode read abundance (log10)": 0.03}, {"sequence": "CCTAAACCTTGGGTTCTAACCTGTTGCGT (site CCTAATCCTAC)", "recombinant barcode read abundance (log10)": 0.0605}, {"sequence": "CCTAACACTTGGGTTCTAACCTGTTGCCT (site ACTAACACTAG)", "recombinant barcode read abundance (log10)": 0.0635}, {"sequence": "CCTAACACTTGGGTTCTAACCTGTTGCCT (site CCTAACACTAG)", "recombinant barcode read abundance (log10)": 0.501}, {"sequence": "CCTAACACTTGGGTTCTAACCTGTTGCCT (site GCTAACACTAG)", "recombinant barcode read abundance (log10)": 0.0372}, {"sequence": "CCTAACACTTGGGTTCTAACCTGTTGCCT (site TCTAACACTAG)", "recombinant barcode read abundance (log10)": 0.114}, {"sequence": "CCTACACCTTGGGTTCTAACCTGTTGCCT (site CCTACAACTAG)", "recombinant barcode read abundance (log10)": 0.0638}, {"sequence": "CCTACACCTTGGGTTCTAACCTGTTGCCT (site CCTACACCTAG)", "recombinant barcode read abundance (log10)": 0.928}, {"sequence": "CCTACACCTTGGGTTCTAACCTGTTGCCT (site CCTACAGCTAG)", "recombinant barcode read abundance (log10)": 0.0384}, {"sequence": "CCTACACCTTGGGTTCTAACCTGTTGCCT (site CCTACATCTAG)", "recombinant barcode read abundance (log10)": 0.52}, {"sequence": "CCTAGACCTTGGGTTCTAACCTGTTGCCT (site CCTAGAACTAG)", "recombinant barcode read abundance (log10)": 0.067}, {"sequence": "CCTAGACCTTGGGTTCTAACCTGTTGCCT (site CCTAGACCTAG)", "recombinant barcode read abundance (log10)": 0.771}, {"sequence": "CCTAGACCTTGGGTTCTAACCTGTTGCCT (site CCTAGAGCTAG)", "recombinant barcode read abundance (log10)": 0.201}, {"sequence": "CCTAGACCTTGGGTTCTAACCTGTTGCCT (site CCTAGATCTAG)", "recombinant barcode read abundance (log10)": 0.312}, {"sequence": "CCTAGCACTTGGGTTCTAACCTGTTGCGA (site CCTAGCACTTC)", "recombinant barcode read abundance (log10)": 0.939}, {"sequence": "CCTAGCACTTGGGTTCTAACCTGTTGCGA (site CCTCGCACTTC)", "recombinant barcode read abundance (log10)": 0.0896}, {"sequence": "CCTAGCACTTGGGTTCTAACCTGTTGCGA (site CCTGGCACTTC)", "recombinant barcode read abundance (log10)": 0.0943}, {"sequence": "CCTAGCACTTGGGTTCTAACCTGTTGCGA (site CCTTGCACTTC)", "recombinant barcode read abundance (log10)": 0.0494}, {"sequence": "CCTATAGCTTGGGTTCTAACCTGTTGCTT (site CCTATAGCTAA)", "recombinant barcode read abundance (log10)": 0.0878}, {"sequence": "CCTATAGCTTGGGTTCTAACCTGTTGCTT (site GAGTCTACTTG)", "recombinant barcode read abundance (log10)": 0.0203}, {"sequence": "CCTCAGGCTTGGGTTCTAACCTGTTGCCT (site CCTCAGGCTAG)", "recombinant barcode read abundance (log10)": 0.106}, {"sequence": "CCTCAGGCTTGGGTTCTAACCTGTTGCCT (site CCTCAGGCTCG)", "recombinant barcode read abundance (log10)": 0.0672}, {"sequence": "CCTCAGGCTTGGGTTCTAACCTGTTGCCT (site CCTCAGGCTGG)", "recombinant barcode read abundance (log10)": 0.107}, {"sequence": "CCTCAGGCTTGGGTTCTAACCTGTTGCCT (site CCTCAGGCTTG)", "recombinant barcode read abundance (log10)": 0.204}, {"sequence": "CCTCAGTCTTGGGTTCTAACCTGTTGCTT (site CCTCAATCTAA)", "recombinant barcode read abundance (log10)": 0.441}, {"sequence": "CCTCAGTCTTGGGTTCTAACCTGTTGCTT (site CCTCACTCTAA)", "recombinant barcode read abundance (log10)": 0.0235}, {"sequence": "CCTCAGTCTTGGGTTCTAACCTGTTGCTT (site CCTCAGTCTAA)", "recombinant barcode read abundance (log10)": 1.68}, {"sequence": "CCTCAGTCTTGGGTTCTAACCTGTTGCTT (site CCTCATTCTAA)", "recombinant barcode read abundance (log10)": 0.122}, {"sequence": "CCTCGAGCTTGGGTTCTAACCTGTTGCGG (site CCTCGAGCTCC)", "recombinant barcode read abundance (log10)": 1.86}, {"sequence": "CCTCGAGCTTGGGTTCTAACCTGTTGCGG (site TCTAGAGCTCC)", "recombinant barcode read abundance (log10)": 0.184}, {"sequence": "CCTCGCACTTGGGTTCTAACCTGTTGCGA (site CCTAGCACTTC)", "recombinant barcode read abundance (log10)": 0.126}, {"sequence": "CCTCGCACTTGGGTTCTAACCTGTTGCGA (site CCTCGCACTTC)", "recombinant barcode read abundance (log10)": 0.112}, {"sequence": "CCTCGCACTTGGGTTCTAACCTGTTGCGA (site CCTGGCACTTC)", "recombinant barcode read abundance (log10)": 0.0155}, {"sequence": "CCTCGCACTTGGGTTCTAACCTGTTGCGA (site CCTTGCACTTC)", "recombinant barcode read abundance (log10)": 0.0861}, {"sequence": "CCTCGCGCTTGGGTTCTAACCTGTTGCCT (site CCTAACGCTAG)", "recombinant barcode read abundance (log10)": 0.822}, {"sequence": "CCTCGCGCTTGGGTTCTAACCTGTTGCCT (site CCTCGCGCTAG)", "recombinant barcode read abundance (log10)": 0.354}, {"sequence": "CCTCGGACTTGGGTTCTAACCTGTTGCAT (site CATCGTACTAT)", "recombinant barcode read abundance (log10)": 0.0825}, {"sequence": "CCTCGGACTTGGGTTCTAACCTGTTGCAT (site CCTCGGACTAT)", "recombinant barcode read abundance (log10)": 1.59}]}]}
